Assays:
[1] = tested on: bronchoconstricting effects of a standard dose of acetylcholine; experiment: Bronchodilation by aerosol inhalation (method of Rosenthale et al.): inhibition of the bronchoconstricting effects of a standard dose of acetylcholine; format: in vivo; conditions: guinea pig
Text: In using the compounds of the invention to produce bronchodilating effects in warm-blooded animals, they may be administered in a variety of dosage forms: oral, injectable, and aerosol inhalation. Aerosol inhalation is a preferred method because of its rapid onset of action, great potency, and specificity of action. The particular dosage to obtain the bronchodilating effect will vary with the particular compound employed, the particular animal involved, and the degree of bronchodilation desired. In the guinea pig, by aerosol inhalation, the dose to produce bronchodilation is from about 1.5 micrograms to about 100 micrograms, and preferably from about 1.5 to about 50 micrograms. The bronchodilation produced upon aerosol inhalation can be observed by the method of Rosenthale et al., J. Pharmacol. Exp. Ther., 178, 541 (1971). Using this procedure the following result was obtained.

[2] = Hypotension in the anesthetized dog, intravenous route; format: in vivo; conditions: dose 100 μg/kg
Procedure: Thus in the anesthetized dog by the intravenous route the dose to produce hypotension is from about 1 μg/kg. to about 200 μg/kg. and preferably from about 10 μg/kg. to about 100 μg/kg. Using this procedure the following results were obtained.

[3] = tested on: ADP induced platelet aggregation (human platelet rich plasma); experiment: ADP induced platelet aggregation in platelet rich plasma (modification of Born and Cross); format: cell-based; conditions: human PRP, in vitro; for IC50: Platelet, ADP induced (2 to 4 μM ADP), read-out: Concentration which inhibits 50% of platelet aggregation
Procedure: Platelet aggregation is the initial step in thrombus formation and it is considered that compounds which prevent aggregation or reduce platelet adhesiveness may inhibit the initiation of the arteriosclerotic process. The effect of drugs on aggregation is measured in platelet rich plasma (PRP) containing adenosine diphosphate (ADP) which markedly increases aggregation in vitro and may be a physiological agent for doing so in vivo.
Human blood is collected from fasted normal blood donors in siliconized 50 ml. Vacutainers that contain 3.8% sodium citrate. Centrifugation at 500 G. for 3 minutes at 5° C. separates the red blood cells from the PRP. The supernatant PRP is pipetted off and the remainder is centrifuged at 1000 G. for 10 minutes at 25° C. to obtain platelet poor plasma for standardization of the automated Payton aggregometer. In the running of the platelet aggregation test a cell containing 1.0 ml. of PRP is stirred at 1,100 rpm and the test compound is added in 0.2 ml. of buffered saline to give an initial concentration of 5 × 10^-^3 M, or 5 × 10^-^4 M. After 3 minutes, a concentration of ADP predetermined to yield marked platelet aggregation (2 to 4 μM) is added in 0.1 ml. of buffered saline. The curve of light transmission at 610 mμ is followed for 6 minutes. Compounds found to be active at the initial concentration are run at lower concentrations. The results are expressed as the concentration which gives 50% inhibition of the ADP induced aggregation.

Row | SMILES | Percent Inhibition of the bronchoconstricting effects of a standard dose of acetylcholine ([1]; dose 1.5 μg) | Δb.p. [2] | IC50 [3] | Inhibition of ADP induced platelet aggregation (at concentration) ([3]; at 1.5 × 10^-^6 M) | Percent Inhibition of the bronchoconstricting effects of a standard dose of acetylcholine ([1]; dose 15 μg) | Inhibition of ADP induced platelet aggregation (at concentration) ([3]; at 2.6 × 10^-^6 M)
1 | CCCCC[C@H](O)/C=C/[C@H]1[C@H](O)C=C[C@@H]1CCCCCCC(=O)O [4α-hydroxy-5β-[(3S)-3-hydroxy-trans-1-octenyl]-2-cyclopentene-1α-heptanoic acid] | 60% | -34 mm. Hg | 1200 nM | 63% | – | –
2 | CCCCC[C@H](O)/C=C/[C@H]1[C@H](O)C=C[C@@H]1C/C=C\CCCC(=O)O [7-(4α-hydroxy-5β-[(3S)-3-hydroxy-trans-1-octenyl]-2-cyclopenten-1α-yl)-cis-5-heptenoic acid] | – | – | 2600 nM | – | 44% | 50%

— patent US3933904A, “11,15-Dihydroxy-9,13-prostadienoic acid” (American Home Products Corporation, priority 1974, dated 1976)
